From US4496591A, “Insecticidal bis-carbamate sulfides” (priority 1981, dated 1985)

Legend:
Type in all cases: in vivo
[1] = tested on: Mexican bean beetle (Epilachna varivestis, Muls.) larvae; assay: Mexican bean beetle leaf spray test; parameters: key: A: excellent control; B: partial control; C: no control at 500 ppm; details: 500 parts per million, fourth instar larvae, three days
Procedure: (§1) Suspensions of the test compounds were prepared by dissolving one gram of compound in 50 milliliters of acetone in which had been dissolved 0.1 gram (10 percent of the weight of compound) of an alkylphenoxy polyethoxyethanol surfactant, as an emulsifying or dispersing agent. The resulting solution was mixed into 150 milliliters of water to give roughly 200 milliliters of a suspension containing the compound in finely divided form. The thus-prepared stock suspension contained 0.5 percent by weight of compound. The concentrations in parts per million by weight employed in the tests described hereinbelow were obtained by appropriate dilutions of the stock suspension with water. The test procedures were as follows:
Fourth instar larvae of the Mexican bean beetle (Epilachna varivestis, Muls.), reared on Tendergreen bean plants at a temperature of 80±5° F. and 50±5° F. percent relative humdity, were the test insects.
The test compounds were formulated by diluting the stock suspension with water to give a suspension containing 500 parts of test compound per million parts of final formulation. Tendergreen bean plants of standard height and age were placed on a revolving turntable and sprayed with 100-110 milliliters of test compound formulation by use of a DeVilbiss spray gun set at 40 psig air pressure. This application, which lasted 25 seconds, was sufficient to wet the plants to run-off. As a control, 100-110 milliliters of a water-acetone-emulsifier solution containing no test compound was also sprayed on infested plants. When dry, the paired leaves were separated and each was placed in a 9 centimeter Petri dish lined with moistened filter paper. Five randomly selected larvae were introduced into each dish, and the dishes were closed. The closed dishes were labeled and held at a temperature of 80±5° F., for three days. Although the larvae could easily consume the leaf within 24 to 48 hours, no more food was added. Larvae which were unable to move the length of the body, even upon stimulation, were considered dead.
(§2) In these tests the pesticidal activity of the compounds at the indicated dosage rate against aphid, Southern Armyworm, Bean Beetle and housefly was rated as follows: […]

[2] = tested on: house flies (Musca domestica, L.); assay: Fly bait test; parameters: key: A: excellent control; B: partial control; C: no control at 500 ppm; details: 500 parts per million, sugar bait, twenty-four hours
Procedure: as §1
Four to six day old adult house flies (Musca domestica, L.), reared according to the specifications of the Chemical Specialties Manufacturing Association (Blue Book, McNair-Dorland Co., N.Y. 1954; pages 243-244, 261) under controlled conditions of 80±5° F. and 50±5 percent relative humidity, were the test insects. The flies were immobilized by anesthetizing them with carbon dioxide. Twenty-five immobilized individuals, males and females, were transferred to a cage consisting of a standard food strainer about five inches in diameter which was inverted over a wrapping-paper-covered surface. The test compounds were formulated by diluting the stock suspension with a 10 percent (by weight) sugar solution to give a suspension containing 500 parts of test compound per million parts of final formulation, by weight. Ten milliliters of the test formulation were added to a souffle cup containing a one-inch square of an absorbent cotton pad. This bait cup was introduced and centered on the blotting paper under the food strainer prior to admitting the anesthetized flies. The caged flies were allowed to feed on the bait for twenty-four hours, at a temperature of 80±5° F. and at a relative humidity of 50±5 percent.
as §2

[3] = tested on: root-knot nematode, Meloidogyne incognita var. acrita; assay: Nematocide test; parameters: key: 1: severe galling, equal to untreated plants; 2: moderate galling; 3: light galling; 4: very light galling; 5: no galling, perfect control; details: 3.33 m.g. per jar, cucumber, approximately 3 weeks
Procedure: The test organism used was the infective migratory larvae of the root-knot nematode, Meloidogyne incognita var. acrita, reared in the greenhouse on roots of cucumber plants. Infected plants were removed from the culture, and the roots were chopped very finely. A small amount of this inoculum was added to a pint jar containing approximately 180 cc. of soil. The jars were capped and incubated for one week at room temperature. During this period eggs of the nematode were hatched, and the larval forms migrated into the soil.
Ten ml. of the test formulation were added to each of the two jars for each dosage tested. Following the addition of chemical, the jars were capped, and the contents thoroughly mixed on a ball mill for […].
The test compounds were formulated by a standard procedure of solution in acetone addition of an emulsifier, and dilution with water. Primary screening tests were conducted at 3.33 m.g. of the test compound per jar.
The jars were left capped at room temperature for a period of 48 hours, and the contents then transferred to 3 inch pots. Subsequently, the pots were seeded to cucumber as an indicator crop and placed in the greenhouse where they were cared for in the normal fashion for approximately 3 weeks.
The cucumber plants were then taken from the pots, the soil removed from the roots, and the amount of galling visually rated.
In the test for activity against nematodes activity was rated as follows: […]

Q: How did the “Mexican Bean Beetle, pesticidal activity rating” value [1] turn out when `CSC(C)=NOC(=O)N(C)SN(C)C(=O)Oc1cccc(C=O)c1` [Compound 3] was run?
A: A

Q: What about the “Housefly, pesticidal activity rating” value [2] of the same compound?
A: A

Q: What about the “Root-Knot Nematode, galling rating” value [3] of the same compound?
A: 1
